Publication PMC10377643, “Exploration of Bis-Cinnamido-Polyamines as Intrinsic Antimicrobial Agents and Antibiotic Enhancers” (Biomolecules, 2023)
In brackets after ≈: the same amount, converted by molar mass.

Columns and labels:
E. coli ATCC 25922 [1] = test: Erythromycin enhancement against E. coli; assay type: cell-based, Escherichia coli; details: erythromycin fixed at 10.9 µM (8 µg/mL)
Procedure: (§1) Antibiotic enhancer concentrations were determined using previously reported protocols.

C. albicans ATCC 90028 = test: Antifungal MIC, C. albicans (CO-ADD); assay type: cell-based; details: Candida albicans, ATCC90028, mean (n = 2)
Procedure: (§2) The susceptibility of bacterial strains S. aureus (ATCC 25923), E. coli (ATCC 25922) and P. aeruginosa (ATCC 27853) to antibiotics and compounds was determined using protocols reported previously. Additional antimicrobial evaluation against MRSA (ATCC 43300), Klebsiella pneumoniae (ATCC 700603), Acinetobacter baumannii (ATCC 19606), Candida albicans (ATCC 90028) and Cryptococcus neoformans (ATCC 208821) was undertaken at the Community for Open Antimicrobial Drug Discovery at The University of Queensland (Australia) according to their standard protocols reported previously.

E. coli ATCC 25922 [2] = test: Antimicrobial MIC, E. coli; assay type: cell-based, Escherichia coli; details: mean (n = 3)
Procedure: as §2

P. aeruginosa ATCC 27853 [3] = test: Doxycycline enhancement against P. aeruginosa; assay type: cell-based, Pseudomonas aeruginosa; details: doxycycline fixed at 4.5 µM
Procedure: as §1
We then evaluated the set of analogues for the ability to enhance the antibiotic activity of doxycycline against P. aeruginosa ATCC 27853 and of erythromycin against E. coli ATCC 25922 (Table 2). In the case of doxycycline, a fixed concentration of the antibiotic of 4.5 μM, which is twenty-fold lower than the intrinsic MIC 90 μM against this organism, was used. Each of the test compounds was then evaluated at a range of concentrations varying from 3.125 to 50–100 μM, with the upper concentration dependent upon the compounds intrinsic MIC towards P. aeruginosa (Table 1). […] While the observation of cytotoxicity/hemolytic properties of 16a–c, 14f and 13f reduces our interest in these analogues, analogues 13b and 13d were identified as non-toxic and strong enhancers of the action of doxycycline towards P. aeruginosa.

[4] = system: C. neoformans ATCC 208821; test: Antifungal MIC, C. neoformans (CO-ADD); assay type: cell-based; details: Cryptococcus neoformans, ATCC208821, mean (n = 2)
Procedure: as §2

Cytotoxicity assay = assay type: cell-based, human; details: human, HEK293 human embryonic kidney cells, mean (n = 2), read-out: Cytotoxicity (IC50), concentration of compound at 50% cytotoxicity
Procedure: Cytotoxicity assays were conducted using the protocols previously reported.

S. aureus ATCC 25923 = test: Antimicrobial MIC, S. aureus; assay type: cell-based; details: Staphylococcus aureus, ATCC25923, mean (n = 3)
Procedure: as §2

MRSA ATCC 43300 = test: Antimicrobial MIC, MRSA (CO-ADD); assay type: cell-based, methicillin-resistant S. aureus; details: Staphylococcus aureus; MRSA ATCC 43300; mean (n = 2); read-out: MIC MRSA
Procedure: as §2

human red blood cells = test: Hemolytic assay; assay type: cell-based; details: mean (n = 2)
Procedure: Hemolysis assays were conducted using the protocols previously reported.

P. aeruginosa ATCC 27853 [5] = test: Antimicrobial MIC, P. aeruginosa; assay type: cell-based; details: Pseudomonas aeruginosa, ATCC27853, mean (n = 3)
Procedure: as §2

P. aeruginosa PAO1 = test: Intrinsic MIC, P. aeruginosa PAO1; assay type: cell-based; details: Pseudomonas aeruginosa; P. aeruginosa PAO1; substance alone (no antibiotic / no enhancer); read-out: MIC alone, P. a
Procedure: as §1

[6] = Escherichia coli, ATCC25922, E. coli ATCC 25922

Row | SMILES | Eryth/E. c: concentration required to restore erythromycin activity (E. coli ATCC 25922 [1]) [µM] | Eryth/E. c: fold change (intrinsic MIC of test compound / combination MIC) (E. coli ATCC 25922 [1]) [fold] | MIC (C. albicans ATCC 90028) [µM] | MIC (E. coli ATCC 25922 [2]; [6]) [µM] | Dox/P. a: concentration required to restore doxycycline activity (P. aeruginosa ATCC 27853 [3]) [µM] | Dox/P. a: fold change (intrinsic MIC of test compound / combination MIC) (P. aeruginosa ATCC 27853 [3]) [fold] | MIC [4] [µM] | IC50 (Cytotoxicity assay) [µM] | MIC (S. aureus ATCC 25923) [µM] | MIC (MRSA ATCC 43300) [µM] | Hemolysis (HC10), concentration of compound at 10% hemolytic activity (human red blood cells) [µM] | MIC (P. aeruginosa ATCC 27853 [5]) [µM] | MIC (E. coli ATCC 25922 [2]; E. coli ATCC 25922) [µM] | MIC (P. aeruginosa PAO1) [µM]
1 | O=C(C=Cc1ccccc1)NCCCNCCCCCCCNCCCNC(=O)C=Cc1ccccc1.O=C(O)C(F)(F)F.O=C(O)C(F)(F)F [Compound 13c, N^1,N^7-Bis(3-cinnamamidopropyl)heptane-1,7-diaminium 2,2,2-trifluoroacetate] | 136 | > 2 | > 43.7 | > 273 | 68 | > 4 | > 43.7 | > 43.7 | > 273 | > 43.7 | >43.7 | > 273 | – | –
2 | O=C(C=Cc1ccccc1)NCCCNCCCCCCCCCCNCCCNC(=O)C=Cc1ccccc1.O=C(O)C(F)(F)F.O=C(O)C(F)(F)F [Compound 13e, N^1,N^10-Bis(3-cinnamamidopropyl)decane-1,10-diaminium 2,2,2-trifluoroacetate] | 64.5 | 10 | > 41.3 | 645 | 645 | 1 | 41.3 | 24.3 | 64.5 | 20.6 | 37.6 | 645 | – | –
3 | O=C(C=Cc1ccccc1)NCCCNCCCCCCCCCCCCNCCCNC(=O)C=Cc1ccccc1.O=C(O)C(F)(F)F.O=C(O)C(F)(F)F [Compound 13f, N^1,N^12-Bis(3-cinnamamidopropyl)dodecane-1,12-diaminium 2,2,2-trifluoroacetate] | 3.125 | 0.5 | > 39.9 | 1.56 | 6.25 | 8 | ≤ 0.31 | 19.9 | 3.12 | ≤ 0.31 | >39.9 | 50 | – | –
4 | COc1ccc(/C=C/C(=O)NCCCNCCCCCCNCCCNC(=O)/C=C/c2ccc(OC)cc2)cc1.O=C(O)C(F)(F)F.O=C(O)C(F)(F)F [Compound 14b, N^1,N^6-Bis(3-((E)-3-(4-methoxyphenyl)acrylamido)propyl)hexane-1,6-diaminium 2,2,2-trifluoroacetate] | 256 | > 1 | > 41.1 | > 257 | 64 | > 4 | ≤ 0.32 | > 41.1 | 64.2 | 41.1 | >41.1 | > 257 | – | –
5 | COc1ccc(/C=C/C(=O)NCCCNCCCCCCNCCCNC(=O)/C=C/c2ccc(OC)c(Br)c2)cc1Br.O=C(O)C(F)(F)F.O=C(O)C(F)(F)F [Compound 15b, N^1,N^6-Bis(3-((E)-3-(3-bromo-4-methoxyphenyl)acrylamido)propyl)hexane-1,6-diaminium 2,2,2-trifluoroacetate] | 26.7 | 2 | > 34.1 | 53 | 53.4 | > 4 | ≤ 0.27 | > 34.2 | 6.67 | 2.1 | 0.99 | > 214 | – | –
6 | COc1ccc(/C=C/C(=O)NCCCNCCCCCCCCNCCCNC(=O)/C=C/c2ccc(OC)c(Br)c2)cc1Br.O=C(O)C(F)(F)F.O=C(O)C(F)(F)F [Compound 15d, N^1,N^8-Bis(3-((E)-3-(3-bromo-4-methoxyphenyl)acrylamido)propyl)octane-1,8-diaminium 2,2,2-trifluoroacetate] | 25.9 | 1 | 33.2 | 25.9 | 51.8 | > 4 | ≤ 0.26 | 19.7 | 6.48 | ≤ 0.26 | 0.52 | > 207 | – | –
7 | COc1c(Br)cc(/C=C/C(=O)NCCCNCCCCCCNCCCNC(=O)/C=C/c2cc(Br)c(OC)c(Br)c2)cc1Br.O=C(O)C(F)(F)F.O=C(O)C(F)(F)F [Compound 16b, N^1,N^6-Bis(3-((E)-3-(3,5-dibromo-4-methoxyphenyl)acrylamido)propyl)hexane-1,6-diaminium 2,2,2-trifluoroacetate] | 11.4 | 1 | 29.2 | 11.4 | – | > 16 | ≤ 0.23 | 15.6 | 5.71 | ≤ 0.23 | 0.91 | > 183 | – | –
8 | COc1c(Br)cc(/C=C/C(=O)NCCCNCCCCCCCNCCCNC(=O)/C=C/c2cc(Br)c(OC)c(Br)c2)cc1Br.O=C(O)C(F)(F)F.O=C(O)C(F)(F)F [Compound 16c, N^1,N^7-Bis(3-((E)-3-(3,5-dibromo-4-methoxyphenyl)acrylamido)propyl)heptane-1,7-diaminium 2,2,2-trifluoroacetate] | 22.6 | 0.5 | > 28.9 | 11.3 | – | 16 | ≤ 0.23 | 22 | 5.64 | ≤ 0.23 | 0.31 | 180 | – | –
9 | COc1c(Br)cc(/C=C/C(=O)NCCCNCCCCCCCCNCCCNC(=O)/C=C/c2cc(Br)c(OC)c(Br)c2)cc1Br.O=C(O)C(F)(F)F.O=C(O)C(F)(F)F [Compound 16d, N^1,N^8-Bis(3-((E)-3-(3,5-dibromo-4-methoxyphenyl)acrylamido)propyl)octane-1,8-diaminium 2,2,2-trifluoroacetate] | 22.3 | 0.5 | > 28.5 | 11.1 | 44.5 | > 4 | ≤ 0.22 | 11 | 5.57 | ≤ 0.22 | ≤0.22 | > 178 | – | –
10 | COc1c(Br)cc(/C=C/C(=O)NCCCNCCCCCCCCCCCCNCCCNC(=O)/C=C/c2cc(Br)c(OC)c(Br)c2)cc1Br.O=C(O)C(F)(F)F.O=C(O)C(F)(F)F [Compound 16f, N^1,N^12-Bis(3-((E)-3-(3,5-dibromo-4-methoxyphenyl)acrylamido)propyl)dodecane-1,12-diaminium 2,2,2-trifluoroacetate] | 5.30 | 1 | ≤ 0.21 | 5.3 | 42.4 | > 4 | ≤ 0.21 | 1.44 | 5.3 | ≤ 0.21 | 0.24 | > 170 | 5.30 | –
11 | C[C@H]1c2cccc(O)c2C(=O)C2=C(O)[C@]3(O)C(=O)C(C(N)=O)=C(O)[C@@H](N(C)C)[C@@H]3[C@@H](O)[C@@H]21 [doxycycline, reference compound] | – | – | – | – | – | – | – | – | – | – | – | 90 (≈ 40 µg/mL) | – | 144
